This assay concerns the target K. pneumoniae FtsZ (KpFtsZ) (Klebsiella pneumoniae, UniProt A0A0H3GRR0). Description: fluorescence anisotropy titration of intrinsically fluorescent RUP4 ([…]) with purified KpFtsZ, […] °C, […] fit. The format is binding.

Data on one molecule can be found in article PMC10967458, “A FtsZ Inhibitor That Can Utilize Siderophore-Ferric Iron Uptake Transporter Systems for Activity against Gram-Negative Bacterial Pathogens” (Antibiotics, 2024).

As usually defined, the Kd is a measure of binding affinity in units of concentration. Low values mean higher affinity, high ones lower affinity.

The structures appear in SMILES notation.

K. pneumoniae FtsZ (KpFtsZ), sequence (A0A0H3GRR0 entry or part of it): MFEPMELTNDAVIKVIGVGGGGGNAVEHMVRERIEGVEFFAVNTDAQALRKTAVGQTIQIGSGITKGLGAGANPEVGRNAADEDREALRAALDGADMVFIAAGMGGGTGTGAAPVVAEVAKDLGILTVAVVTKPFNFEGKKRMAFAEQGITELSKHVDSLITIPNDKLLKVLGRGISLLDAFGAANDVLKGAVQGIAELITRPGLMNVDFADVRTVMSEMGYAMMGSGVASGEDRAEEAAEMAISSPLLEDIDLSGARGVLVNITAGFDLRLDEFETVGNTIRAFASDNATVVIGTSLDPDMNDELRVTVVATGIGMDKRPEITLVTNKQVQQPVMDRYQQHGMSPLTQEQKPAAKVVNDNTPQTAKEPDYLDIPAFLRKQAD

Turning to `NC(=O)c1c(F)ccc(OC(CCNC(=O)c2ccc(O)c(O)c2Cl)c2nc(-c3ccc(C(F)(F)F)cc3)c(Br)o2)c1F` (stereo not shown) [RUP4], the Kd was 49 ± 5 µM.
